Data on four compounds can be found in paper PMC6225228, “Design, Synthesis and Evaluation of N-pyrazinylbenzamides as Potential Antimycobacterial Agents” (Molecules : A Journal of Synthetic Chemistry and Natural …, 2018).

Values after ≈ are worked out from the molar mass of the structure shown. Where two headings read alike, the source gives them in different places. Bounds are passed on as bounds.

Data set [1] deals with Mycobacterium tuberculosis H37Rv (Mtb). The conditions noted are these: Šula's semisynthetic medium, pH = 5.6, turbidity, cited from earlier work; for Amides MIC: first value; for Amides MIC (value in parentheses): second value in parentheses.
A further data set deals with HepG2 cells. The conditions noted are these: read-out: Amide -CONH- IC50; cited from earlier work.
Data set [2] relates to Mycobacterium tuberculosis H37Rv CNCTC My 331/88 (ATCC 27294). The experiment in a line: Antimycobacterial microdilution MABA, M. tuberculosis. The class given is cell-based. As to conditions: for MIC: Mycobacterium tuberculosis. Background: Dilution methods test growth across graded concentrations, often in twofold steps.
Data set [3] deals with Pseudomonas aeruginosa CCM 1961. In words: Antibacterial microdilution broth, PA. The data set is classed as cell-based. As to conditions: Pseudomonas aeruginosa, read-out: MIC PA.
For data set [4] the following is noted: human, HepG2 cells.
Data set [5] relates to M. kansasii CNCTC My 235/80 (ATCC 12478). In words: Antimycobacterial microdilution MABA, M. kansasii. The data set is classed as cell-based, Mycobacterium kansasii. As to conditions: for MIC: Mycobacterium kansasii, ATCC12478, pH 6.6, read-out: M. kans. ATCC 12478 MIC, Middlebrook 7H9 with OADC, pH 6.6, MABA.
Data set [6] deals with Trichophyton interdigitale 445. In words: Antifungal microdilution broth, TI. The data set is classed as cell-based. As to conditions: read-out: MIC TI.
Data set [7] deals with Aspergillus fumigatus 231. The experiment in a line: Antifungal microdilution broth, AF. The class given is cell-based. The conditions noted are these: read-out: MIC AF.
In a further data set the test system is Candida tropicalis 156. The experiment in a line: Antifungal microdilution broth, CT. The class given is cell-based. As to conditions: read-out: MIC CT.
For another data set, the system named is Candida krusei E28. In words: Antifungal microdilution broth, CK. The data set is classed as cell-based. As to conditions: Pichia kudriavzevii, read-out: MIC CK.
The subject of data set [8] is M. avium ssp. avium CNCTC My 80/72 (ATCC 15769). The experiment in a line: Antimycobacterial microdilution MABA, M. avium. The data set is classed as cell-based, Mycobacterium avium. As to conditions: for MIC: Mycobacterium avium, ATCC15769, pH 6.6, read-out: M. avium ATCC 15769 MIC.
The subject of data set [9] is Mycobacterium smegmatis CCM 4622 (ATCC 607). In words: Antimycobacterial microdilution, M. smegmatis. The class given is cell-based. The conditions noted are these: Mycolicibacterium smegmatis, read-out: M. smeg. ATCC 607 MIC.
Data set [10] has as its system Staphylococcus epidermidis H 6966/08. In words: Antibacterial microdilution broth, SE. The conditions noted are these: read-out: MIC SE. The data set is classed as cell-based.
Data set [11] concerns Candida albicans ATCC 44859. The experiment in a line: Antifungal microdilution broth, CA. The conditions noted are these: Candida albicans, read-out: MIC CA. The class given is cell-based.
Data set [12] has as its system Staphylococcus aureus H 5996/08 methicillin resistant. The experiment in a line: microbe, parasite or virus in culture. The class given is cell-based. As to conditions: for MIC: Staphylococcus aureus, MRSA, read-out: MIC MRSA.
Data set [13] relates to Lichtheimia corymbifera 272. In words: Antifungal microdilution broth, LC. The class given is cell-based. The conditions noted are these: read-out: MIC LC.
Data set [14] relates to Staphylococcus aureus CCM 4516/08. The experiment in a line: Antibacterial microdilution broth, SA. The data set is classed as cell-based.
Data set [15] has as its system Escherichia coli CCM 4517. The experiment in a line: Antibacterial microdilution broth, EC. The class given is cell-based. As to conditions: Escherichia coli, read-out: MIC EC.
In a further data set the test system is Candida glabrata 20/I. In words: Antifungal microdilution broth, CG. The class given is cell-based. As to conditions: Nakaseomyces glabratus, 20/I, read-out: MIC CG.
A short description of data set [16]: Confirmatory prolonged HepG2 cytotoxicity, CellTox Green Cytotoxicity Assay. As to conditions: human, HepG2 cells.
The test system of a further data set is Trichosporon asahii 1188. The experiment in a line: Antifungal microdilution broth, TA. The data set is classed as cell-based. The conditions noted are these: read-out: MIC TA.
Data set [17] relates to Enterococcus sp. J 14365/08. In words: Antibacterial microdilution broth, EF. The class given is cell-based. As to conditions: Enterococcus, read-out: MIC EF.
[18] abbreviates: read-out: Mtb H37Rv ATCC 27294 MIC, Middlebrook 7H9 with OADC growth supplement, pH = 6.6, MABA.
Setting [19] is: read-out: Mtb MIC, molar concentration.
Where [20] appears, read: Trichophyton interdigitale, 445, 72 h.
[21] abbreviates: Trichophyton interdigitale, 445, 120 h.
[22] abbreviates: Aspergillus fumigatus, 231, 24 h.
The mark [23] stands for this setting: Aspergillus fumigatus, 231, 48 h.
Where [24] appears, read: Staphylococcus epidermidis, H6966/08, 24 h.
Setting [25] is: Staphylococcus epidermidis, H6966/08, 48 h.
Setting [26] is: Lichtheimia corymbifera, 272, 24 h.
[27] abbreviates: Lichtheimia corymbifera, 272, 48 h.
The mark [28] stands for this setting: Staphylococcus aureus, CCM4516, 24 h, read-out: MIC SA, 24 h.
Setting [29] is: Staphylococcus aureus, CCM4516, 48 h, read-out: MIC SA, 48 h.
Setting [30] is: Trichosporon asahii, 1188, 24 h.
[31] abbreviates: Trichosporon asahii, 1188, 48 h.
Where [32] appears, read: Middlebrook 7H9 with OADC, pH 6.6, MABA.

One may read the IC50 as the midpoint of a concentration-inhibition curve. As to `O=C(Nc1ccccc1O)c1cnc(Cl)cn1` [Amide R1=5-Cl R2=2-OH], in data set [1], the “Amides MIC” value was 3.13 µg/mL and the “Amides MIC (value in parentheses)” value is 0.78 µg/mL. Besides, in the data set with HepG2 cells, the IC50 was 30 µM.

The term melting point denotes the temperature, or range, at which the solid turns liquid. For the compound `O=C(Nc1cnc(Cl)cn1)c1ccccc1O` [Compound 2b], the melting point was in the range of 197.7 to 198.2 °C. Moreover, the MIC in data set [2] (setting [18]) is 12.5 µg/mL. Moreover, in [2] (setting [19]), the MIC stood at 50.1 µM. Further, the MIC in data set [3] (CCM1961, 72 h) is more than 500 µM. In addition, the MIC in [3] (CCM1961, 120 h) is more than 500 µM. In addition, half-maximal inhibition in data set [4] (IC50 at 24 h) was put at 155 µM. Besides, in data set [5], the MIC was determined as 50 µg/mL (≈ 200 µM). The MIC in data set [6] (setting [20]) was determined as 125 µM (≈ 31.2 µg/mL). Further, the MIC in [6] (setting [21]) came out at 125 µM (≈ 31.2 µg/mL). Further, in data set [7] (setting [22]), the MIC is 125 µM (≈ 31.2 µg/mL). The MIC in data set [7] (setting [23]) worked out at 125 µM (≈ 31.2 µg/mL). The MIC in the data set on Candida tropicalis 156 (Candida tropicalis, 156, 24 h) came to 125 µM (≈ 31.2 µg/mL). The MIC with Candida tropicalis 156 (Candida tropicalis, 156, 48 h) is 125 µM (≈ 31.2 µg/mL). Besides, in the data set with Candida krusei E28 (E28, 24 h), the MIC stood at 125 µM (≈ 31.2 µg/mL). Further, the MIC in the data set with Candida krusei E28 (E28, 48 h) amounted to 125 µM (≈ 31.2 µg/mL). For the same compound, in data set [8], the MIC turned out to be 50 µg/mL (≈ 200 µM). For the same compound, the MIC in data set [9] came to 15.6 µg/mL (≈ 62.6 µM). Also, the MIC in data set [10] (24 h) is on record as 62.50 µM (≈ 15.6 µg/mL). Also, in data set [10] (48 h), the MIC is given as 62.50 µM (≈ 15.6 µg/mL). Besides, the MIC in [10] (setting [24]) was found to be 62.5 µM (≈ 15.6 µg/mL). Also, in data set [10] (setting [25]), the MIC is 62.5 µM (≈ 15.6 µg/mL). Further, in [11] (ATCC44859, 24 h), the MIC amounted to 62.5 µM (≈ 15.6 µg/mL). The MIC in [11] (ATCC44859, 48 h) was 62.5 µM (≈ 15.6 µg/mL). For the same compound, in data set [12] (24 h), the “MIC MRSA” value came out at 62.50 µM (≈ 15.6 µg/mL) and the MIC was 62.5 µM (≈ 15.6 µg/mL). Moreover, in [12] (48 h), the “MIC MRSA” value turned out to be 62.50 µM (≈ 15.6 µg/mL) and the MIC is 62.5 µM (≈ 15.6 µg/mL). Also, the MIC in data set [13] (setting [26]) was determined as 62.5 µM (≈ 15.6 µg/mL). Moreover, in data set [13] (setting [27]), the MIC turned out to be 125 µM (≈ 31.2 µg/mL). Also, the MIC in [14] (setting [28]) worked out at 15.6 µM (≈ 3.9 µg/mL). Also, the MIC in data set [14] (setting [29]) amounted to 15.6 µM (≈ 3.9 µg/mL). For the same compound, in data set [15] (CCM4517, 24 h), the MIC was more than 500 µM. Also, in data set [15] (CCM4517, 48 h), the MIC was more than 500 µM. Moreover, the MIC with Candida glabrata 20/I (24 h) amounted to 125 µM (≈ 31.2 µg/mL). Further, the MIC in the data set on Candida glabrata 20/I (48 h) amounted to 125 µM (≈ 31.2 µg/mL). In addition, in [16], the half-inhibitory concentration (IC50) at 24 h amounted to 545 µM and the IC50 at 48 h was determined as 188 µM. Moreover, the MIC with Trichosporon asahii 1188 (setting [30]) was determined as 62.5 µM (≈ 15.6 µg/mL). For the same compound, the MIC with Trichosporon asahii 1188 (setting [31]) came out at 125 µM (≈ 31.2 µg/mL). For the same compound, the MIC in data set [17] (SP.J14365/08, 24 h) is more than 500 µM. Further, the MIC in data set [17] (SP.J14365/08, 48 h) was more than 500 µM.

Turning to `CCc1ccc(C(=O)Nc2cnc(Cl)cn2)cc1` [Compound 2i], the “Mtb H37Rv ATCC 27294 MIC” value in [2] (Middlebrook 7H9 with OADC growth supplement, pH = 6.6, MABA) is listed as 3.13 µg/mL. In addition, the MIC is 3.13 to 6.25 µg/mL in [2] (setting [18]); 12 µM in data set [2] (setting [19]); more than 125 µM in data set [3] (CCM1961, 72 h); more than 125 µM in [3] (CCM1961, 120 h); more than 100 µg/mL in data set [5]; more than 125 µM in [6] (setting [20]). In addition, the MIC was more than 125 µM in data set [6] (setting [21]); more than 125 µM in data set [7] (setting [22]); more than 125 µM in [7] (setting [23]); more than 125 µM in the data set on Candida tropicalis 156 (Candida tropicalis, 156, 24 h); more than 125 µM with Candida tropicalis 156 (Candida tropicalis, 156, 48 h); more than 125 µM with Candida krusei E28 (E28, 24 h). Further, the MIC is more than 125 µM in the data set with Candida krusei E28 (E28, 48 h); more than 100 µg/mL in data set [8]; not below 500 µg/mL in data set [9]; more than 125 µM in data set [10] (setting [24]); more than 125 µM in [10] (setting [25]); more than 125 µM in data set [11] (ATCC44859, 24 h). In addition, the MIC in data set [11] (ATCC44859, 48 h) is more than 125 µM; in data set [12] (24 h), more than 125 µM; in [12] (48 h), more than 125 µM; in [13] (setting [26]) it was more than 125 µM; in [13] (setting [27]), more than 125 µM; in data set [14] (24 h, read-out: MIC SA), more than 125 µM. The MIC in data set [14] (setting [28]) was more than 125 µM; in data set [14] (setting [29]), more than 125 µM; in [15] (CCM4517, 24 h) it was more than 125 µM; in data set [15] (CCM4517, 48 h), more than 125 µM; with Candida glabrata 20/I (24 h), more than 125 µM; in the data set on Candida glabrata 20/I (48 h) it was more than 125 µM. Moreover, the MIC with Trichosporon asahii 1188 (setting [30]) is more than 125 µM; with Trichosporon asahii 1188 (setting [31]), more than 125 µM; in data set [17] (SP.J14365/08, 24 h), more than 125 µM; in data set [17] (SP.J14365/08, 48 h) it was more than 125 µM. The values for the IC50 at 24 h in [4] and in data set [16] were more than 250 µM and 264 µM, respectively. In addition, the “M. kans. ATCC 12478 MIC” value in [5] (setting [32]) was more than 100 µg/mL. Moreover, in [8] (setting [32]), the “M. avium ATCC 15769 MIC” value is given as more than 100 µg/mL. In data set [16], this compound showed an IC50 at 48 h of 250 µM.

Consider `CCc1ccc(NC(=O)c2cnc(Cl)cn2)cc1` [Amide R1=5-Cl R2=4-Et], for which, in [1], the “Amides MIC” value is 1.56 µg/mL and the “Amides MIC (value in parentheses)” value was 0.78 µg/mL. The IC50 in the data set on HepG2 cells is 7.2 µM.
